Measurements as given in ChEMBL document CHEMBL3751801, “Synthesis of novel polybrominated benzimidazole derivatives-potential CK2 inhibitors with anticancer and proapoptotic activity” (Bioorg Med Chem, 2016).
pKi: −log10 of the molar value.

Assays:
[1] = system: CCRF-CEM; test: Cytotoxicity against human CCRF-CEM cells assessed as cell viability at 10 uM after 24 hrs by MTT assay; format: functional; settings: read-out: Activity
[2] = system: CCRF-CEM; test: Cytotoxicity against human CCRF-CEM cells assessed as cell viability at 20 uM after 24 hrs by MTT assay; format: functional; settings: read-out: Activity
[3] = system: CCRF-CEM; test: Cytotoxicity against human CCRF-CEM cells assessed as cell viability at 50 uM after 24 hrs by MTT assay; format: functional; settings: read-out: Activity
[4] = system: MCF7; test: Cytotoxicity against human MCF7 cells assessed as cell viability at 10 uM after 24 hrs by MTT assay; format: functional; settings: MCF7, 24 h, read-out: Activity
[5] = system: MCF7; test: Cytotoxicity against human MCF7 cells assessed as cell viability at 20 uM after 24 hrs by MTT assay; format: functional; settings: MCF7, 24 h, read-out: Activity
[6] = system: MCF7; test: Cytotoxicity against human MCF7 cells assessed as cell viability at 50 uM after 24 hrs by MTT assay; format: functional; settings: MCF7, 24 h, read-out: Activity
[7] = system: CCRF-CEM; test: Induction of apoptosis in human CCRF-CEM cells assessed as viable cells at 10 uM after 24 hrs by annexinV and propidium iodide staining based FACS analysis (reference value: 96.4 +/- 1.2%); format: functional; settings: read-out: Activity
[8] = system: CCRF-CEM; test: Induction of apoptosis in human CCRF-CEM cells assessed as viable cells at 50 uM after 24 hrs by annexinV and propidium iodide staining based FACS analysis (reference value: 96.4 +/- 1.2%); format: functional; settings: read-out: Activity
[9] = system: CCRF-CEM; test: Induction of apoptosis in human CCRF-CEM cells assessed as early apoptotic cells at 10 uM after 24 hrs by annexinV and propidium iodide staining based FACS analysis (reference value: 1.5 +/- 0.8%); format: functional
[10] = system: CCRF-CEM; test: Induction of apoptosis in human CCRF-CEM cells assessed as early apoptotic cells at 50 uM after 24 hrs by annexinV and propidium iodide staining based FACS analysis (reference value: 1.5 +/- 0.8%); format: functional
[11] = system: CCRF-CEM; test: Induction of apoptosis in human CCRF-CEM cells assessed as late apoptotic cells at 10 uM after 24 hrs by annexinV and propidium iodide staining based FACS analysis (reference value: 1.9 +/- 0.5%); format: functional
[12] = system: CCRF-CEM; test: Induction of apoptosis in human CCRF-CEM cells assessed as late apoptotic cells at 50 uM after 24 hrs by annexinV and propidium iodide staining based FACS analysis (reference value: 1.9 +/- 0.5%); format: functional
[13] = system: CCRF-CEM; test: Induction of apoptosis in human CCRF-CEM cells assessed as necrotic cells at 10 uM after 24 hrs by annexinV and propidium iodide staining based FACS analysis (reference value: 0.1 +/- 0.1%); format: functional
[14] = system: CCRF-CEM; test: Induction of apoptosis in human CCRF-CEM cells assessed as necrotic cells at 50 uM after 24 hrs by annexinV and propidium iodide staining based FACS analysis (reference value: 0.1 +/- 0.1%); format: functional
[15] = target: T1, CDK2/Cyclin A2 (Homo sapiens) (UniProt P24941+P20248); test: Inhibition of CDK2/CycA2 (unknown origin) assessed as enzyme activity at 10 uM; format: protein-complex assay; parameters: scale not given: the % may be the effect or the level left
[16] = target: Casein kinase I isoform alpha (Homo sapiens) (UniProt P48729); test: Inhibition of CK1-alpha1 (unknown origin) assessed as enzyme activity at 10 uM; parameters: scale not given: the % may be the effect or the level left
[17] = target: Dual specificity tyrosine-phosphorylation-regulated kinase 1A (Homo sapiens) (UniProt Q13627); test: Inhibition of DYRK1A (unknown origin) assessed as enzyme activity at 10 uM; parameters: scale not given: the % may be the effect or the level left
[18] = target: Mitogen-activated protein kinase 3 (Homo sapiens) (UniProt P27361); test: Inhibition of Erk1 (unknown origin) assessed as enzyme activity at 10 uM; parameters: scale not given: the % may be the effect or the level left
[19] = target: Homeodomain-interacting protein kinase 1 (Homo sapiens) (UniProt Q86Z02); test: Inhibition of HIPK1 (unknown origin) assessed as enzyme activity at 10 uM; parameters: scale not given: the % may be the effect or the level left
[20] = target: Serine/threonine-protein kinase pim-1 (Homo sapiens) (UniProt P11309); test: Inhibition of PIM1 (unknown origin) assessed as enzyme activity at 10 uM; parameters: scale not given: the % may be the effect or the level left
[21] = species: Homo sapiens; test: Inhibition of PKA (unknown origin) assessed as enzyme activity at 10 uM; parameters: scale not given: the % may be the effect or the level left
[22] = target: T2, Serine/threonine-protein kinase D2 (Homo sapiens) (UniProt Q9BZL6); test: Inhibition of PRKD2 (unknown origin) assessed as enzyme activity at 10 uM; parameters: scale not given: the % may be the effect or the level left
T2 sequence (whole entry): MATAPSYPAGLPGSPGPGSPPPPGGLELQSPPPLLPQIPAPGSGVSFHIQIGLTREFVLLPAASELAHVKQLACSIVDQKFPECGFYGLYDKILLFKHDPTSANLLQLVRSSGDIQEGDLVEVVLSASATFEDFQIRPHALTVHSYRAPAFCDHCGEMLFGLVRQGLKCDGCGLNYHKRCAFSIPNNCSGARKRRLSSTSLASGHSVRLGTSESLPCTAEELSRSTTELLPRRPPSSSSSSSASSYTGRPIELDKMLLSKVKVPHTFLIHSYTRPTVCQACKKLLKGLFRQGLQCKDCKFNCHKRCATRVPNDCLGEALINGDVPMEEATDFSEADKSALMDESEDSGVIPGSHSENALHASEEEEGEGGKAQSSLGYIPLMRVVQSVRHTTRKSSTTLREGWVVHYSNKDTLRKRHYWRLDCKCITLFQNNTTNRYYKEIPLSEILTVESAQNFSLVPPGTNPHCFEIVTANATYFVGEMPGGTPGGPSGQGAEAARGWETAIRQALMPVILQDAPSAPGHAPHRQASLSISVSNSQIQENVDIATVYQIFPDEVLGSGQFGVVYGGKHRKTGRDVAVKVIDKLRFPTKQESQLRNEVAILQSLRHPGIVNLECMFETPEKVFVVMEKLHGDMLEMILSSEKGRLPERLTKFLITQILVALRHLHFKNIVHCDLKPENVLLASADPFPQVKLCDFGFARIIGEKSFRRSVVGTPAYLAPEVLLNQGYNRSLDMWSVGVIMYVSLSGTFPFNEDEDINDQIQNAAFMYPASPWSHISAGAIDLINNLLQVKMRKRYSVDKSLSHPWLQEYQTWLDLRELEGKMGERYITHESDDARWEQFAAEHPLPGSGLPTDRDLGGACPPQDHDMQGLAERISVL

[23] = target: Casein kinase II subunit alpha (Homo sapiens, UniProt P68400); test: Inhibition of recombinant human CK2alpha using RRRDDDSDDD substrate peptide by scintillation counter in presence of [32P]ATP
[24] = target: T1, CDK2/Cyclin A2 (Homo sapiens); test: Inhibition of CDK2/CycA2 (unknown origin) assessed as enzyme activity at 5 microM; format: protein-complex assay; parameters: scale not given: the % may be the effect or the level left
[25] = target: Casein kinase I isoform alpha (Homo sapiens) (UniProt P48729); test: Inhibition of CK1-alpha1 (unknown origin) assessed as enzyme activity at 5 uM; parameters: scale not given: the % may be the effect or the level left
[26] = target: Dual specificity tyrosine-phosphorylation-regulated kinase 1A (Homo sapiens) (UniProt Q13627); test: Inhibition of DYRK1A (unknown origin) assessed as enzyme activity at 5 uM; parameters: scale not given: the % may be the effect or the level left
[27] = target: Mitogen-activated protein kinase 3 (Homo sapiens) (UniProt P27361); test: Inhibition of Erk1 (unknown origin) assessed as enzyme activity at 5 uM; parameters: scale not given: the % may be the effect or the level left
[28] = target: Homeodomain-interacting protein kinase 1 (Homo sapiens) (UniProt Q86Z02); test: Inhibition of HIPK1 (unknown origin) assessed as enzyme activity at 5 uM; parameters: scale not given: the % may be the effect or the level left
[29] = target: Serine/threonine-protein kinase pim-1 (Homo sapiens) (UniProt P11309); test: Inhibition of PIM1 (unknown origin) assessed as enzyme activity at 5 uM; parameters: scale not given: the % may be the effect or the level left
[30] = species: Homo sapiens; test: Inhibition of PKA (unknown origin) assessed as enzyme activity at 5 uM; parameters: scale not given: the % may be the effect or the level left
[31] = target: T2, Serine/threonine-protein kinase D2 (Homo sapiens); test: Inhibition of PRKD2 (unknown origin) assessed as enzyme activity at 5 uM; parameters: scale not given: the % may be the effect or the level left
[32] = target: Casein kinase II (Homo sapiens) (UniProt P67870+P68400+P19784); settings: CCRF-CEM, 5 uM

Compound	viability at 10 µM [1] [%]	viability at 20 µM [2] [%]	viability at 50 µM [3] [%]	viability at 10 µM [4] [%]	viability at 20 µM [5] [%]	viability at 50 µM [6] [%]	viability at 10 µM [7] [%]	viability at 50 µM [8] [%]	Activity [9] [%]	Activity [10] [%]	Activity [11] [%]	Activity [12] [%]	Activity [13] [%]	Activity [14] [%]	other results
N#CCCn1cnc2c(Br)c(Br)c(Br)c(Br)c21	80	44	2	81	72	23	90.6	5.4	5.4	77.2	3.9	17	0.1	0.4	
Brc1c(Br)c(Br)c2[nH]cnc2c1Br	92	67	7	94	77	40	94.8	18.8	2.4	59.2	2.7	26	0.1	1	Activity [15]: 23%; Activity [16]: 48%; Activity [17]: 3%; Activity [18]: 78%; Activity [19]: 9%; Activity [20]: 2%; Activity [21]: 75%; Activity [22]: 5%
N#CCn1cnc2c(Br)c(Br)c(Br)c(Br)c21	63	28	2	87	65	43	76.2	14.8	12.3	62.7	8.8	20.4	0.5	0.8	
Cc1nc2c(Br)c(Br)c(Br)c(Br)c2n1CCCC#N	68	44	1	65	56	5	82.4	3.3	10.8	14.7	6.3	76.3	0.5	5.7	
Cc1nc2c(Br)c(Br)c(Br)c(Br)c2n1CC#N	45	14	2	52	36	11	52	2.4	28.9	59.7	17.8	33.9	0.8	0.6	
Cc1nc2c(Br)c(Br)c(Br)c(Br)c2n1CCCCC#N	92	61	55	109	110	42	93.5	30.2	3.6	39.9	2.9	29.3	0.1	0.6	
N#CCCCn1cnc2c(Br)c(Br)c(Br)c(Br)c21	85	70	2	89	70	16	92.8	21.5	3.3	41.1	3.8	33.3	0.1	2.3	
Cc1nc2c(Br)c(Br)c(Br)c(Br)c2[nH]1	29	15	6	76	66	33	36.7	14.2	47.3	59.8	15.3	27.3	0.5	0.4	pKi [23]: 5.95; Activity [24]: 20%; Activity [25]: 84%; Activity [26]: 17%; Activity [27]: 92%; Activity [28]: 43%; Activity [29]: 6%; Activity [30]: 113%; Activity [31]: 14%; inhibition [32]: 20%
Cc1nc2c(Br)c(Br)c(Br)c(Br)c2n1CCC#N	84	51	2	85	74	15	82	6.2	10.6	69.6	7.1	20.1	0.2	0.9	
N#CCCCCn1cnc2c(Br)c(Br)c(Br)c(Br)c21	98	70	1	102	99	18	93.6	14.3	3.2	39.9	3.1	44.9	0.1	0.9	
